Marks after values point to notes of the source that are not given here.
Assay: Single subcutaneous dose [14C]-copper histidinate pharmacokinetic study in healthy adult male subjects
Type: in vivo, human
Conditions: for Whole Blood:Serum Total Radioactivity Partitioning Ratio (Arithmetic Mean ± SD): n = 6; for Whole Blood:Serum Total Radioactivity Partitioning Ratio: 504 hour postdose, n = 1 (Subject 6)
Description: The primary objective of this study was to quantitate total radioactivity (TRA) in whole blood, serum, and the eluted fractions of serum spiked with unlabeled copper histidinate (CuHis) from a size exclusion-high performance liquid chromatography (SEC-HPLC) column after a single subcutaneous (SC) administration of [^14C] CuHis in healthy adult male subjects. Further, the study was designed to determine the percentage of ^14C radioactivity associated with cellular components in whole blood over time (e.g., whole blood:serum partitioning concentration ratio).
To evaluate the safety and tolerability after a single SC administration of [^14C] CuHis in healthy adult male subjects. This was an open-label, single-dose, 1-period, PK study conducted at 1 study center in the USA. Six (6) healthy, adult male subjects were enrolled. Screening of subjects occurred within 28 days prior to dosing.
On Day 1, a single SC 3.0 mg (˜500 nCi) dose of [^14C]-CuHis was administered. Pharmacokinetic (PK) samples for determining TRA in whole blood and serum, and [^14C] CuHis in eluted fractions of serum spiked with unlabeled CuHis from an SEC-HPLC column were collected pre-dose and up to 168 hours post-dose (Subjects 1 to 5) or 504 hours post-dose (Subject 6).
A single dose of 3.0 mg (˜500 nCi) [^14C]-CuHis (equivalent to approximately 500 μg of elemental copper) for SC bolus injection was administered into the upper arm of each subject at Hour 0 on Day 1. Hour 0 corresponded to the start of the bolus SC administration on Day 1. Subjects were instructed not to rub the injection site(s).
Blood samples for determining TRA in whole blood and serum, and [^14C]-CuHis in eluted fractions of serum spiked with unlabeled CuHis from a SEC-HPLC column were collected predose and up to 168 hours postdose (Subjects 1 to 5) or up to 504 hours postdose (Subject 6).
TRA CuHis concentration equivalents in whole blood and serum were determined using accelerator mass spectrometry (AMS) at Pharmaron ABS, Inc. (Germantown, Maryland, USA). The lower limits of quantitation (LLOQ) for TRA CuHis concentration equivalents in whole blood and serum ranged from 0.711 to 0.770 ng eq CuHis/mL and 0.239 to 0.284 ng eq CuHis/mL in the different subjects, respectively.
[^14C]-CuHis concentrations in serum fractions from the SEC-HPLC column were determined using AMS at Pharmaron ABS, Inc. (Germantown, Maryland, USA). The LLOQ for [^14C]-CuHis concentrations in serum was 0.270 ng/mL.
Whole blood: serum TRA partitioning ratios were calculated at each postdose time point for each subject as the ratio between whole blood TRA CuHis concentration equivalents and serum TRA CuHis concentration equivalents. The following parameters were calculated for whole blood and serum TRA, and serum [^14C]-CuHis, when possible: AUC0-24, AUC0-last, AUC0-∞, AUC% extrap, Cmax, tmax, tlag, Kel, and t1/2. The AUC0-24 Ratio was calculated for serum [^14C]-CuHis versus serum TRA. CL/F and Vz/F were calculated for serum [^14C]-CuHis.
Whole blood and serum TRA CuHis concentration equivalents, serum [^14C]-CuHis concentrations, and whole blood:serum TRA partitioning ratios were listed and summarized by time point for all subjects in the PK population. Summary statistics, including sample size (n), arithmetic mean (Mean), standard deviation (SD), coefficient of variation (CV %), standard error of the mean (SEM), minimum, median, and maximum were calculated for the above data at each nominal time point.
Whole blood and serum TRA PK parameters, and serum [^14C]-CuHis PK parameters were listed for each subject and summarized for all subjects in the PK population. Summary statistics (n, Mean, SD, CV %, SEM, minimum, median, maximum, geometric mean [Geom Mean], and geometric CV % [Geom CV %]) were calculated for all PK parameters.

[1] = single SC 3.0 mg, arithmetic mean ± SD
[2] = single SC 3.0 mg, geometric mean (geometric CV%)
[3] = single SC 3.0 mg, median (minimum, maximum)
[4] = single SC 3.0 mg, median (minimum, maximum), listed as [^14C]-CuHis
[5] = single SC 3.0 mg, up to 168 h, Subject 6 excluded, geometric mean (geometric CV%)

Question: What does the source list for N[C@@H](Cc1c[nH]cn1)C(=O)O.N[C@@H](Cc1c[nH]cn1)C(=O)O.[Cu] [[^14C]-Copper Histidinate]?
Answer: Whole Blood:Serum Total Radioactivity Partitioning Ratio (Arithmetic Mean ± SD) (0.25 hour postdose): 0.6165 ± 0.1072; Whole Blood:Serum Total Radioactivity Partitioning Ratio (Arithmetic Mean ± SD) (0.5 hour postdose): 0.6410 ± 0.05811; Whole Blood:Serum Total Radioactivity Partitioning Ratio (Arithmetic Mean ± SD) (0.75 hour postdose): 0.6426 ± 0.05966; arithmetic mean serum CuHis concentration, peak (0.75 hours postdose): 63.47 ng/mL; Whole Blood:Serum Total Radioactivity Partitioning Ratio (Arithmetic Mean ± SD) (1 hour postdose): 0.6888 ± 0.06107; Whole Blood:Serum Total Radioactivity Partitioning Ratio (Arithmetic Mean ± SD) (1.5 hour postdose): 0.6728 ± 0.0542; Whole Blood:Serum Total Radioactivity Partitioning Ratio (Arithmetic Mean ± SD) (2 hour postdose): 0.6761 ± 0.03446; Whole Blood:Serum Total Radioactivity Partitioning Ratio (Arithmetic Mean ± SD) (4 hour postdose): 0.7010 ± 0.09398; Whole Blood:Serum Total Radioactivity Partitioning Ratio (Arithmetic Mean ± SD) (8 hour postdose): 0.5856 ± 0.1175; arithmetic mean serum TRA CuHis concentration equivalent, peak (8 hours postdose): 97.43 ng eq CuHis/mL; Whole Blood:Serum Total Radioactivity Partitioning Ratio (Arithmetic Mean ± SD) (16 hour postdose): 0.7144 ± 0.1134; Whole Blood:Serum Total Radioactivity Partitioning Ratio (Arithmetic Mean ± SD) (24 hour postdose): 0.6708 ± 0.08484; Whole Blood:Serum Total Radioactivity Partitioning Ratio (Arithmetic Mean ± SD) (36 hour postdose): 0.7498 ± 0.04878; Whole Blood:Serum Total Radioactivity Partitioning Ratio (Arithmetic Mean ± SD) (36 hour postdose, listed as [^14C]-CuHis): 0.7498; Whole Blood:Serum Total Radioactivity Partitioning Ratio (Arithmetic Mean ± SD) (48 hour postdose): 0.8329 ± 0.09811; Whole Blood:Serum Total Radioactivity Partitioning Ratio (Arithmetic Mean ± SD) (72 hour postdose): 1.209 ± 0.1925; Whole Blood:Serum Total Radioactivity Partitioning Ratio (Arithmetic Mean ± SD) (96 hour postdose): 1.612 ± 0.3461; Whole Blood:Serum Total Radioactivity Partitioning Ratio (Arithmetic Mean ± SD) (120 hour postdose): 1.853 ± 0.3512; Whole Blood:Serum Total Radioactivity Partitioning Ratio (Arithmetic Mean ± SD) (144 hour postdose): 2.163 ± 0.3333; Whole Blood:Serum Total Radioactivity Partitioning Ratio (Arithmetic Mean ± SD) (168 hour postdose): 2.392 ± 0.222; Whole Blood:Serum Total Radioactivity Partitioning Ratio (Arithmetic Mean ± SD) (168 hour postdose, listed as [^14C]-CuHis): 2.392; arithmetic mean whole blood TRA CuHis concentration equivalents, highest level (168 hours postdose): 100.9 ng eq CuHis/mL; Whole Blood:Serum Total Radioactivity Partitioning Ratio: 2.160*; Whole Blood:Serum Total Radioactivity Partitioning Ratio (listed as [^14C]-CuHis): 2.16; serum TRA CuHis concentration equivalent (504 hours postdose, Subject 6): 30.7 ng eq CuHis/mL; whole blood TRA CuHis concentration equivalent (504 hours postdose, Subject 6): 66.3 ng eq CuHis/mL; exposure to TRA (AUC0-last) higher in whole blood than in serum (by 168 hours postdose): approximately 29%; exposure to TRA (AUC0-24) lower in whole blood than in serum (first 24 hours postdose): approximately 34%; exposure to TRA in the serum associated with [14C]-CuHis (first 24 hours postdose): Approximately 9%; distribution phase half-life, serum [14C]-CuHis (initial rapid decrease after peak, estimated): 2 to 3 h; peak exposure to TRA (Cmax), whole blood compared with serum (single SC 3.0 mg): similar; AUC0-∞, serum total radioactivity (single SC 3.0 mg, Subject 6 excluded, geometric mean (geometric CV%)): 23390 (25.7) [n = 5]^c ng eq CuHis · hr/mL; AUC% extrap, serum [14C]-copper histidinate [1]: 12.37 ± 8.3964 [n = 5]^e %; AUC% extrap, serum total radioactivity [1]: 58.34 ± 12.677 [n = 5]^c %; CL/F, serum [14C]-copper histidinate [1]: 10.34 ± 1.6214 [n = 5]^e L/hr; Kel, serum [14C]-copper histidinate [1]: 0.0166 ± 0.01512 [n =5]^e 1/hr; Kel, serum total radioactivity [1]: 0.003278 ± 0.001588 [n = 5]^c 1/hr; t1/2, serum [14C]-copper histidinate (terminal elimination phase) [1]: 74.842 ± 49.1558 [n = 5]^e hr; t1/2, serum [14C]-copper histidinate (terminal elimination phase) (single SC 3.0 mg, arithmetic mean ± SD, listed as [^14C]-CuHis): ~75 h; AUC0-24, serum [14C]-copper histidinate [2]: 185.6 (20.6) ng · hr/mL; AUC0-24, serum total radioactivity [2]: 1993 (21.4) [n = 6] ng eq CuHis · hr/mL; AUC0-24, whole blood total radioactivity [2]: 1315 (30.4) [n = 6] ng eq CuHis · hr/mL; AUC0-24 Ratio, serum [14C]-CuHis versus serum total radioactivity [2]: 0.09317 (19.5) [n = 6]; AUC0-last, serum [14C]-copper histidinate [2]: 249.3 (10.6) ng · hr/mL; AUC0-∞, serum [14C]-copper histidinate [2]: 296.0 (15.3) ng · hr/mL; Cmax, serum [14C]-copper histidinate [2]: 67.14 (35.9) ng/mL; Cmax, serum total radioactivity [2]: 95.78 (24.3) [n = 6] ng eq CuHis/mL; Cmax, whole blood total radioactivity [2]: 100.1 (14.8) [n = 6] ng eq CuHis/mL; AUC0-24 Ratio, serum [14C]-CuHis versus serum total radioactivity (single SC 3.0 mg, geometric mean (geometric CV%), listed as [^14C]-CuHis): 0.09317; tlag, serum [14C]-copper histidinate [3]: 0.00 (0.00, 0.00) [n = 6] hr; tlag, serum total radioactivity [3]: 0.00 (0.00, 0.00) [n = 6] hr; tlag, whole blood total radioactivity [3]: 0.00 (0.00, 0.00) [n = 6] hr; tmax, serum [14C]-copper histidinate [3]: 0.747 (0.50, 0.76) hr; tmax, serum total radioactivity [3]: 8.007 (7.99, 16.02) [n = 6] hr; tmax, whole blood total radioactivity [3]: 168.006 (144.01, 168.03) [n = 6] hr; tmax, serum [14C]-copper histidinate [4]: 0.75 h; tmax, serum total radioactivity [4]: ~8 h; tmax, whole blood total radioactivity [4]: ~168 h; AUC0-last, serum total radioactivity [5]: 9390 (13.4) [n = 5]^c ng eq CuHis · hr/mL; AUC0-last, whole blood total radioactivity [5]: 12130 (15.3) [n = 5]^c ng eq CuHis · hr/mL
